Read-outs that look alike come from different tables or passages of the source.
How the values were obtained:
ACK1 = target: T1, ACK1 (Homo sapiens, UniProt Q07912); test: PanQinase kinase panel: ACK1; assay type: biochemical
T1 construct: purchased Reaction Biology Europe GmbH
Protocol: (§1) Screening procedures were performed in accordance with the company's on-line protocol [accessed on-line Mar.
(§2) For each kinase, the median value of the cpm of three wells was defined as “low control” (n=3). This value reflects unspecific binding of radioactivity to the plate in the absence of a protein kinase but in the presence of the substrate. Additionally, for each kinase the median value of the cpm of three other wells was taken as the “high control,” i.e. full activity in the absence of any inhibitor (n=3). The difference between high and low control of each enzyme was taken as 100% activity.
(§3) As part of the data evaluation the low control of each kinase was subtracted from the high control value as well as from their corresponding “compound values”. The residual activity (in %) for each compound well was calculated by using the following formula: Res. Activity (%)=100×[(signal of compound−low control)/(high control−low control)].

MST1 = target: T2, MST1 (Homo sapiens, UniProt Q13043); test: PanQinase kinase panel: MST1; assay type: biochemical; conditions: read-out: INHIBITORY EFFECT @ 1 uM: MST1
T2 construct: purchased Reaction Biology Europe GmbH
T2 sequence (Q13043 1-487): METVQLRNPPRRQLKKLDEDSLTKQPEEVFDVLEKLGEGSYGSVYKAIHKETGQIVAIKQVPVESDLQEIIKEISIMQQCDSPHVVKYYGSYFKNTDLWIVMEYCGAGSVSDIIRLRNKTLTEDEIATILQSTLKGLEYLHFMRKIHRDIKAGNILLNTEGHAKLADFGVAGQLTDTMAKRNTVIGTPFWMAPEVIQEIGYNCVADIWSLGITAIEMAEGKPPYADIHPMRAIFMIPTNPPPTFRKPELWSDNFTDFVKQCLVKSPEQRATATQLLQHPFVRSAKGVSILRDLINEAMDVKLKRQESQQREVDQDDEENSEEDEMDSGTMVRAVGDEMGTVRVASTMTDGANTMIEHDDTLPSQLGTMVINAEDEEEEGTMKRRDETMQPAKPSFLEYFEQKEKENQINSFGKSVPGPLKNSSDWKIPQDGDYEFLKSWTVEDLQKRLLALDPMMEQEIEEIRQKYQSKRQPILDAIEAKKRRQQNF
Protocol: as §1, §2, §3

EGFR = target: T3, EGFR (Homo sapiens, UniProt P00533); test: PanQinase kinase panel: EGFR; assay type: biochemical; conditions: read-out: INHIBITORY EFFECT @ 1 uM: EGFR
T3 construct: purchased Reaction Biology Europe GmbH
Protocol: as §1, §2, §3

LRRK2 = target: T4, LRRK2 (Homo sapiens, UniProt Q5S007); test: PanQinase kinase panel: LRRK2; assay type: biochemical; conditions: read-out: INHIBITORY EFFECT @ 1 uM: LRRK2
T4 construct: purchased Reaction Biology Europe GmbH
Protocol: as §1, §2, §3

MEKK2 = target: T5, MEKK2 (Homo sapiens, UniProt Q9Y2U5); test: PanQinase kinase panel: MEKK2; assay type: biochemical; conditions: read-out: INHIBITORY EFFECT @ 1 uM: MEKK2
T5 construct: purchased Reaction Biology Europe GmbH
T5 sequence (Q9Y2U5 1-619): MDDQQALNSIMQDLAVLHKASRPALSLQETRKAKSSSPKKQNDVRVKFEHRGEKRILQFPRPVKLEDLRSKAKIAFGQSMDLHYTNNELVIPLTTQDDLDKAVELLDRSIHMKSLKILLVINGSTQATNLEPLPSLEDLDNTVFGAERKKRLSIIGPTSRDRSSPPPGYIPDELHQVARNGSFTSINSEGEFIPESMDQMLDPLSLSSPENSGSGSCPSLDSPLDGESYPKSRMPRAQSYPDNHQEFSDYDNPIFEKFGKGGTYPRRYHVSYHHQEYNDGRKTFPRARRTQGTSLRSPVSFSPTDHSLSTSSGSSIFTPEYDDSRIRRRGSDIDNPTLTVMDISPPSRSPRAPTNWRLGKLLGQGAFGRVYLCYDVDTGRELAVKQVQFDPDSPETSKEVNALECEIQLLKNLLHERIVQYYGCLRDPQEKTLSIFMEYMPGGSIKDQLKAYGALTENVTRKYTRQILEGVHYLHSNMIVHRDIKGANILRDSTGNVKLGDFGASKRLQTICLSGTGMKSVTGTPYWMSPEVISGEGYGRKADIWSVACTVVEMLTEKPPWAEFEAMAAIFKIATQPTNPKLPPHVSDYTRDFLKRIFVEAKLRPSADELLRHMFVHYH
Protocol: as §1, §2, §3

CXCR4 = CXCR4 (Homo sapiens, UniProt P61073); test: Intracellular CXCL-12-induced calcium mobilization assay (FLIPR), U87.CXCR4 cells; assay type: cell-based; design: expressed in transfected cells; host or cells: U87 (U87.CXCR4); conditions: CXCL-12 25-50 ng/ml, read-out: IC50 CXCL-12 Ca2+ flux U87.CXCR4+
Summary of the method: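 U87 cells transfected with CXCR4 were loaded with 4 μM Fluo-2 AM for 45 min at 37° C in HBSS with 20 mM HEPES and 0.2% BSA, pH 7.4. Calcium mobilization induced by CXCL-12 (25-50 ng/ml) was followed over time by FLIPR fluorescence at 37° C.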

[1] = read-out: INHIBITORY EFFECT @ 1 uM: ACK1

Sequence of CXCR4 (P61073 whole entry): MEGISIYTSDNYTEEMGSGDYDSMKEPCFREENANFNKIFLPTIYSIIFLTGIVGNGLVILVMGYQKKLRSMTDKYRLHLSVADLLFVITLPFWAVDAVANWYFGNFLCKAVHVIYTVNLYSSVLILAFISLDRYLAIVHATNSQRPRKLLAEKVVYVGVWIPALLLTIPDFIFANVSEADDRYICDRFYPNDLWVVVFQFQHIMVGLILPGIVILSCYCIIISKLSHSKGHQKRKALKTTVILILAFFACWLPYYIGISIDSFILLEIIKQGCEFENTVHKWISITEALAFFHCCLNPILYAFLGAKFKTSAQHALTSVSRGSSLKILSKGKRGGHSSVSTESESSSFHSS
T3 sequence (P00533 25-1210): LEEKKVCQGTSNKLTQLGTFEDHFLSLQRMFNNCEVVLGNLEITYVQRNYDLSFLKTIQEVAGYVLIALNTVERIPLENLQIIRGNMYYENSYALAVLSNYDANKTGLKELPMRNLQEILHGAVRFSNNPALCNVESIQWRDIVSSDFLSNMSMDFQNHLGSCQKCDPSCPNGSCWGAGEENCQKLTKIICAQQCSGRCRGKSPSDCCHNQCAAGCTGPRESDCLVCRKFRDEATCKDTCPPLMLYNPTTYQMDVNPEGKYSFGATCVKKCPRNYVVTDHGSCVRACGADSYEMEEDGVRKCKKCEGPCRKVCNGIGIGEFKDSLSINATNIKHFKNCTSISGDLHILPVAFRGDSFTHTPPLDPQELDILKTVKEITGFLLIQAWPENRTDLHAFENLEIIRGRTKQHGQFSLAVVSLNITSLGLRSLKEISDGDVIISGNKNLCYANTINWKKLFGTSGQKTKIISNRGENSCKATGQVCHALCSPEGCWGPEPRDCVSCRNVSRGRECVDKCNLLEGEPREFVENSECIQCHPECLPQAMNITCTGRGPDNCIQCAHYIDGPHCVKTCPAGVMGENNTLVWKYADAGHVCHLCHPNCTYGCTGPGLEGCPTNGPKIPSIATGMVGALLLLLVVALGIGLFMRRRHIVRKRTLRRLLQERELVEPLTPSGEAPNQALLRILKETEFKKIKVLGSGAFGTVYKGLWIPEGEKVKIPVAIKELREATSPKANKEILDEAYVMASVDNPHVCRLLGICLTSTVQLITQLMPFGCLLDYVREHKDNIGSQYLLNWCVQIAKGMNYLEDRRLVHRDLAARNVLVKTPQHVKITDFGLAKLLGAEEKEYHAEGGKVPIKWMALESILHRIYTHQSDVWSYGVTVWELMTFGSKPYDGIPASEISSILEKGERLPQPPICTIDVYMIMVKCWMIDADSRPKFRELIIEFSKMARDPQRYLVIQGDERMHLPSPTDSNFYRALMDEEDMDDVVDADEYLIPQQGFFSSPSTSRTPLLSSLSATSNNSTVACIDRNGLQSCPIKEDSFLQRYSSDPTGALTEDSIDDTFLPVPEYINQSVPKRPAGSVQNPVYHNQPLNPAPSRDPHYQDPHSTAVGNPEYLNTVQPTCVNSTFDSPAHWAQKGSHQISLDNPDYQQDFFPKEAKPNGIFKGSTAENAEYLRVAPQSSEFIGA
T4 sequence (Q5S007 whole entry): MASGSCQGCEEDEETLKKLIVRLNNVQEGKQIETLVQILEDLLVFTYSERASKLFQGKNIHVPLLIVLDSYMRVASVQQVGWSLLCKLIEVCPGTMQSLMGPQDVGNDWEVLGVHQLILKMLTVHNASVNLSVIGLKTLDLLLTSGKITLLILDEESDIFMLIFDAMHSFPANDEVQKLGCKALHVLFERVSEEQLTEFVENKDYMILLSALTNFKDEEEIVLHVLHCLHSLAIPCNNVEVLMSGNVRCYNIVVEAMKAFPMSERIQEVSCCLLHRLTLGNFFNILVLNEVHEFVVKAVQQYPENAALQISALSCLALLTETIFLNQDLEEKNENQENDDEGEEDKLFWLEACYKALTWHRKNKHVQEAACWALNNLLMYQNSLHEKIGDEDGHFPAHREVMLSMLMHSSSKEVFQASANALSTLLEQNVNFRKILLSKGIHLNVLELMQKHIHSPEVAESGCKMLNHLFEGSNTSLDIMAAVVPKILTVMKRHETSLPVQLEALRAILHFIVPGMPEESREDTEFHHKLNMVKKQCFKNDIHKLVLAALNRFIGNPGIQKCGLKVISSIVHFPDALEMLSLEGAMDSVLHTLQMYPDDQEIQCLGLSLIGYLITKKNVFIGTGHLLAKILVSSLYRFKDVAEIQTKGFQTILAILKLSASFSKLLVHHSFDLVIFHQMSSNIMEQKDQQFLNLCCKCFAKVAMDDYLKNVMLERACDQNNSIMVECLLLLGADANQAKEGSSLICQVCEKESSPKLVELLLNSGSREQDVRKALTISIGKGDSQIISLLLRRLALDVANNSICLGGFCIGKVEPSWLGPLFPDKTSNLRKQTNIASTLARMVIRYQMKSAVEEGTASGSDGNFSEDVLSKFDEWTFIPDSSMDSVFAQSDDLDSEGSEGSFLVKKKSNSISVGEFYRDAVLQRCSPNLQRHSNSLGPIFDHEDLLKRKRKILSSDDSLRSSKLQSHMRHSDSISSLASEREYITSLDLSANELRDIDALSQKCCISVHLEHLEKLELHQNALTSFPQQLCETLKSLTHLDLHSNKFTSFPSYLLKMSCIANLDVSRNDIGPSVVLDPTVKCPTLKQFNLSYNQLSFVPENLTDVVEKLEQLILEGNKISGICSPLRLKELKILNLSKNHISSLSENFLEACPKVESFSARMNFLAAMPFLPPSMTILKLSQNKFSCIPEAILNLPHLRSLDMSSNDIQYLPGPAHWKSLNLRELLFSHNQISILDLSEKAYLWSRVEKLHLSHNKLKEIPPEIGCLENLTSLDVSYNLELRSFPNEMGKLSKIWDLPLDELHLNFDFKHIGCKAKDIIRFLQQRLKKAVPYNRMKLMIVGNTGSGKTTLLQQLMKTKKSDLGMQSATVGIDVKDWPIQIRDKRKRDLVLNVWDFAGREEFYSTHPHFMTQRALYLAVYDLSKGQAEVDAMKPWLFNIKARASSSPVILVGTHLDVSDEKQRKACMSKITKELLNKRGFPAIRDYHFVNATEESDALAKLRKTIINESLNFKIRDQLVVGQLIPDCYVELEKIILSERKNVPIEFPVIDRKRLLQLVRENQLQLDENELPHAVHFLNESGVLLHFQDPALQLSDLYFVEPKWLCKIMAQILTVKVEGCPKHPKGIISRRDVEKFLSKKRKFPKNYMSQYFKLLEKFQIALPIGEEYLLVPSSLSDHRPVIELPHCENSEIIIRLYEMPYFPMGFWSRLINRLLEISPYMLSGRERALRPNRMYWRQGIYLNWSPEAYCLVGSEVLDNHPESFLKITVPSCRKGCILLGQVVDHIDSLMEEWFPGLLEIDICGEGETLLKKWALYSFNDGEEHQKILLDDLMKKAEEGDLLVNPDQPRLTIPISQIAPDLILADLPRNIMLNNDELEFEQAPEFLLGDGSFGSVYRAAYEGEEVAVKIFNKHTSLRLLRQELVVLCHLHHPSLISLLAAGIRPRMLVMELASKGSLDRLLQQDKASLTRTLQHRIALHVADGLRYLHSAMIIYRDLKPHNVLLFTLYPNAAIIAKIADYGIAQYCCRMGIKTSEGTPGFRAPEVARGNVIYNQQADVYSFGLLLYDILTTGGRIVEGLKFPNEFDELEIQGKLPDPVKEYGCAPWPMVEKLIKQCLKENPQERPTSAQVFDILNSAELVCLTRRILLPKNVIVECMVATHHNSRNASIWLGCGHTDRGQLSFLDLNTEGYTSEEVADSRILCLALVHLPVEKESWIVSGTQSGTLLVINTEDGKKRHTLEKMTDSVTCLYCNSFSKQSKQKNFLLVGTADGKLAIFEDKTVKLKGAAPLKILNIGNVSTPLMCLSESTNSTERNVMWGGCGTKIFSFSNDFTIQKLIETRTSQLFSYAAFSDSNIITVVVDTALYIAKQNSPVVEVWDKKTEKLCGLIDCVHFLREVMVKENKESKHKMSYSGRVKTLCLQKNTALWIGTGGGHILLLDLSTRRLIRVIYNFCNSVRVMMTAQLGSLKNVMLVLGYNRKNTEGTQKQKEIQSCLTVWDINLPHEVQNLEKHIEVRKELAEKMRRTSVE
T1 sequence (Q07912 whole entry): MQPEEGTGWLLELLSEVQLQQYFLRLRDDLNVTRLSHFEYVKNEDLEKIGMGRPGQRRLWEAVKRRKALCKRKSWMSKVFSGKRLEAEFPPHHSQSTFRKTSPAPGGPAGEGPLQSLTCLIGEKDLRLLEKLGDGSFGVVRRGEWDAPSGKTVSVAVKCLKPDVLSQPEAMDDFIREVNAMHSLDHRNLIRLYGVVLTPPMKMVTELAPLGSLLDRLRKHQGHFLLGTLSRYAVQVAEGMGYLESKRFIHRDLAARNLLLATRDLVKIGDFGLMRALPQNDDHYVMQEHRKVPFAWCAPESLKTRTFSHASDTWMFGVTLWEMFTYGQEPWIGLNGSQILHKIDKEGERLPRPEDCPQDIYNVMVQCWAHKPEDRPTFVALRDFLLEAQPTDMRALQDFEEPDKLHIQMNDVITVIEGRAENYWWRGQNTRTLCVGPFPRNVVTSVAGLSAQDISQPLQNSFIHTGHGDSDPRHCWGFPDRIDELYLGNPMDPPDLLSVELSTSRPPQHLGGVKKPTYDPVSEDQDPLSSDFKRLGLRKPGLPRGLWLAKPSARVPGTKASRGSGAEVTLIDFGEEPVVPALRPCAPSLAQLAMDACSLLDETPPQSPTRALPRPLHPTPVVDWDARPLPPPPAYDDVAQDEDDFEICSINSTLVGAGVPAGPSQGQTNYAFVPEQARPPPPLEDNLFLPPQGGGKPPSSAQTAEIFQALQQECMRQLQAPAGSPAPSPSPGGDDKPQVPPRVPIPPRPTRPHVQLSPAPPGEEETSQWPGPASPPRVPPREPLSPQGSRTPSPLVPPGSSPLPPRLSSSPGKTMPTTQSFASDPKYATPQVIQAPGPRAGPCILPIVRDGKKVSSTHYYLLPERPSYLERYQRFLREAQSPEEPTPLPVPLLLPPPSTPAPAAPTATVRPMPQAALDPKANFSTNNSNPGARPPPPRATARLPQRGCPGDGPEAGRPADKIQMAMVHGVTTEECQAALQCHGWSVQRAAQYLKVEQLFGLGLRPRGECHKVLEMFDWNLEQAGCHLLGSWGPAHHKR

Row | SMILES | inhibition at 1 µM (ACK1; [1]) [%] | inhibition at 1 µM (MST1) [%] | inhibition at 1 µM (EGFR) [%] | inhibition at 1 µM (LRRK2) [%] | inhibition at 1 µM (MEKK2) [%] | inhibition at 1 µM (ACK1; 1 μM, read-out: inhibitor effect on ACK1) [%] | IC50 (CXCR4) [nM]
1 | COc1ccc(F)cc1C(=O)NCc1ccc(-c2nn([C@@H](C)C(F)(F)F)c(N)c2C(N)=O)cc1 [LOXO-305, pirtobrutinib] | < 50 | < 50 | < 50 | < 50 | < 50 | – | –
2 | C=CC(=O)N1CCC([C@@H]2CCNc3c(C(N)=O)c(-c4ccc(Oc5ccccc5)cc4)nn32)CC1 [Zanubrutinib, (7S)-2-(4-phenoxyphenyl)-7-(1-prop-2-enoylpiperidin-4-yl)-4,5,6,7-tetrahydropyrazolo[1,5-a]pyrimidine-3-carboxamide] | < 50 | < 50 | < 50 | < 50 | < 50 | – | –
3 | O=C(c1ccc(Oc2ccccc2)cc1Cl)c1c[nH]c2ncnc(N[C@@H]3CC[C@@H](CO)OC3)c12 [ARQ-531, (2-chloro-4-phenoxyphenyl) (4-(((3R,6S)-6-(hydroxymethyl)tetrahydro-2H-pyran-3-yl)amino)-7H-pyrrolo[2,3-d]pyrimidin-5-yl) methanone] | 90 to 100 | 70 to 89 | 70 to 89 | 50 to 69 | 70 to 89 | – | –
4 | Cc1cccnc1[C@H]1CCC[C@@H](c2ncccc2C)N1CCN1CCN(C(=O)c2ccc(-c3cc4c(-c5cccc(NC(=O)c6ccccc6)c5C)ncnc4[nH]3)cc2)CC1 [Compound I-10, N-(3-(6-(4-(4-(2-((2R,6S)-2,6-bis(3-methylpyridin-2-yl)piperidin-1-yl)ethyl)piperazine-1-carbonyl)phenyl)-7H-pyrrolo[2,3-d]pyrimidin-4-yl)-2-methylphenyl)benzamide] | 90 to 100 | < 50 | < 50 | < 50 | < 50 | ≥ 90 | 1 to 100
5 | Cc1cccnc1[C@H]1CCC[C@@H](c2ncccc2C)N1CCCCNC(=O)OC[C@@H]1CC[C@@H](Nc2ncnc3[nH]cc(C(=O)c4ccc(Oc5ccccc5)cc4Cl)c23)CO1 [Compound I-18] | – | – | – | – | – | – | > 2500
6 | Cc1cc(-c2ccnc(Nc3cnn(CCN4[C@@H](c5ncccc5C)CCC[C@H]4c4ncccc4C)c3)n2)ccc1CNC(=O)N1CC(OC(C)C)C1 [Compound I-11] | – | – | – | – | – | – | 100 to 1000
7 | Cc1cccnc1[C@H]1CCC[C@@H](c2ncccc2C)N1CCCCNC(=O)[C@@H]1CC[C@@H](Nc2ncnc3[nH]cc(C(=O)c4ccc(Oc5ccccc5)cc4Cl)c23)CO1 [Compound I-16] | – | – | – | – | – | – | 100 to 1000
